The source of these data is ChEMBL document CHEMBL1955839, “Synthesis and structure-activity relationship of 4-amino-2-phenylpyrimidine derivatives as a series of novel GPR119 agonists” (Bioorg Med Chem, 2012).

A value given as a limit tells only on which side of the number the result lay.

For series [1], the system named is Mus musculus. Put plainly: Antihyperglycemic activity in ICR mouse assessed as blood glucose lowering ratio at 10 mg/kg, po administered 10 mins prior glucose challenge measured after 30 mins by oral glucose tolerance test. The format is functional.
The target in series [2] is T1, Glucose-dependent insulinotropic receptor (Homo sapiens) (UniProt Q8TDV5).
T1 sequence (whole entry): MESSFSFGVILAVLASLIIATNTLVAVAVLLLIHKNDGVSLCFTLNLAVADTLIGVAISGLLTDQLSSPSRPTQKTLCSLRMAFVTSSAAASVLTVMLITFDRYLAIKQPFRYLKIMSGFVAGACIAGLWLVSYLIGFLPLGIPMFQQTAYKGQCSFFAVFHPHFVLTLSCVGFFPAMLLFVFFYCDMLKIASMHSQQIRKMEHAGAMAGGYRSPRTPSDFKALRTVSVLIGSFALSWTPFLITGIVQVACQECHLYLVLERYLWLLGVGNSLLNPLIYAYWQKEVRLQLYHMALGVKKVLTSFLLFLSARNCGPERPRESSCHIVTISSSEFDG
Put plainly: Agonist activity at human GPR119 expressed in HEK293 cells co-transfected with pCRE-Luc assessed as induction in cAMP level at 10 uM after 6 hrs by luciferase reporter gene assay relative to 10 uM of 2-{[2-(4-Bromophenyl)-6-methylpyrimidin-4-yl]amino}ethanol. The format is functional, cell-based. For orientation: Cyclic AMP is a second messenger, typically raised through Gs and lowered through Gi signalling.

The target in another series is T2, Cytochrome P450 1A2 (Homo sapiens, UniProt P05177).
T2 sequence (P05177 whole entry): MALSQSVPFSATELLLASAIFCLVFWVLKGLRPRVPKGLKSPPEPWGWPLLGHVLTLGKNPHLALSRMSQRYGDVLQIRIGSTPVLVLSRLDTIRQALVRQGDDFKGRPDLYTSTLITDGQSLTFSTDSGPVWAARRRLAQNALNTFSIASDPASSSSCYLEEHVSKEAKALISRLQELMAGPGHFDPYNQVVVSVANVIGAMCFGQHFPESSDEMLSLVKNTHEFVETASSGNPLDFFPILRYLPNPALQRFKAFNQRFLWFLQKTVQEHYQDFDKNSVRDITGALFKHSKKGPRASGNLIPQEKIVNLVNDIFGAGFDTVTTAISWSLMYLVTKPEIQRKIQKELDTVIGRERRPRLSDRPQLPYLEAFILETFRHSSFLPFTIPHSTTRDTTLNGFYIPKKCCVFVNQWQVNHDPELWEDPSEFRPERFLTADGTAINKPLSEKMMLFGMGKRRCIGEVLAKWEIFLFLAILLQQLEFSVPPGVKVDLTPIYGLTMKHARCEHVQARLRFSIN
Put plainly: Inhibition of CYP1A2. The format is ADME.

Series [3] deals with T1, Glucose-dependent insulinotropic receptor (Homo sapiens). Put plainly: Agonist activity at human GPR119 expressed in HEK293 cells co-transfected with pCRE-Luc assessed as induction in cAMP level after 6 hrs by luciferase reporter gene assay relative to 10 uM of 2-{[2-(4-Bromophenyl)-6-methylpyrimidin-4-yl]amino}ethanol. The format is functional, cell-based.
For series [4], the system named is Mus musculus. Put plainly: Antihyperglycemic activity in ICR mouse assessed as blood glucose lowering ratio at 30 mg/kg, po administered 10 mins prior glucose challenge measured after 30 mins by oral glucose tolerance test. The format is functional.
Series [5] is described as follows: Oral bioavailability in rat at 3 mg/kg. The format is ADME, organism-based. As to conditions: in vivo.
A short description of series [6]: Volume of distribution at steady state in rat at 1 mg/kg, iv. The format is ADME, organism-based. Particulars: in vivo, read-out: Vdss. The arrangement: dose 1 mg/kg, route intravenous.
Series [7] is described as follows: Tmax in rat at 3 mg/kg, po. The format is ADME, organism-based. More on the design: dose 3 mg/kg, route oral. Particulars: in vivo.
The nature of series [8]: Half life in rat at 1 mg/kg, iv. The format is ADME, organism-based. Particulars: in vivo. More on the design: dose 1 mg/kg, route intravenous.
A short description of series [9]: Total clearance in rat at 1 mg/kg, iv. The format is ADME, organism-based. More on the design: dose 1 mg/kg, route intravenous. Particulars: in vivo.

Broadly, the IC50 is the midpoint of a concentration-inhibition curve. On to `Cc1cc(NCCc2cccnc2)nc(-c2ccc(Br)cc2)n1`, for which the Activity in the series on Mus musculus [1] is on record as 17%. Also, the Intrinsic activity in [2] worked out at 772%. The compound further had an IC50 at Cytochrome P450 1A2 of under 91 nM. Moreover, in [3], the EC was 0.73 µM.

Regarding `OCCNc1cc(C(F)F)nc(-c2ccc(Br)cc2)n1`, the Intrinsic activity in series [2] stood at 195%. Moreover, in series [3], the EC was determined as 8.2 µM.

On Cytochrome P450 1A2, `Cc1cc(NCCO)nc(-c2ccc(Br)cc2)n1` returned an IC50 of 660 nM. The Activity in the series on Mus musculus [4] is 17%.

In general, bioavailability refers to dose-corrected exposure relative to a reference, in per cent. A low value points to little systemic uptake. The Tmax is the time from dosing to the highest level. As usually defined, the half-life is how long it takes for the measured level to halve. Low readings indicate rapid decline, high ones slow decline. The term clearance denotes the rate of elimination divided by the concentration. Low readings indicate inefficient removal, high ones efficient removal. `Cc1cc(NCCc2ccc[n+]([O-])c2)nc(-c2ccc(Br)cc2)n1` gave a bioavailability in [5] of 56%. For the same compound, the Vd in [6] came out at 2 L/kg. The Activity in the series with Mus musculus [1] came out at 38%. Moreover, the IC50 against Cytochrome P450 1A2 stood at 970 nM. In addition, the Tmax in series [7] turned out to be 15 min. For the same compound, the half-life in series [8] was 72 min. The compound further yielded a clearance in [9] of 20.1 mL/min/kg.

Regarding `Cc1cc(NCCO)nc(-c2ccc(I)cc2)n1`, the Intrinsic activity in series [2] worked out at 66%. In series [3], the EC came out at 19 µM.

Take `CCc1cc(NCCO)nc(-c2ccc(Br)cc2)n1`: in [2], the Intrinsic activity is 146%. Also, the EC in series [3] was 5.9 µM.

On to `Cc1cc(NC(C)CO)nc(-c2ccc(Br)cc2)n1` (stereo unspecified), for which the Intrinsic activity in series [2] worked out at 82%. The EC in series [3] is 13 µM.

For the compound `Cc1cc(NCC(C)O)nc(-c2ccc(Br)cc2)n1` (stereo unspecified), the Intrinsic activity in series [2] was determined as 209%. In [3], the EC stood at 3.6 µM.

Regarding `Cc1cc(NCc2cccnc2)nc(-c2ccc(Br)cc2)n1`, the Intrinsic activity in series [2] stood at 294%. This compound also returned an IC50 against Cytochrome P450 1A2 of under 46 nM. Besides, the EC in series [3] was 1.3 µM.

On to `Cc1cc(NCCO)nc(-c2ccc(Cl)cc2)n1`, for which the Intrinsic activity in series [2] is 48%. The EC in series [3] amounted to 12 µM.

In the case of `COCCNc1cc(C)nc(-c2ccc(Br)cc2)n1`, the Activity in the series on Mus musculus [1] amounted to 13%. Also, the Intrinsic activity in series [2] was determined as 209%. For the same compound, at Cytochrome P450 1A2, the IC50 was under 91 nM. Besides, the EC in series [3] stood at 1.8 µM.

For the compound `Cc1cc(NCC(C)C)nc(-c2ccc(Br)cc2)n1`, the Activity with Mus musculus [1] amounted to 24%. In addition, in [2], the Intrinsic activity came to 322%. The same compound showed an IC50 at Cytochrome P450 1A2 of under 91 nM. For the same compound, in series [3], the EC is 0.91 µM.
